Laboratory results reported in ChEMBL document CHEMBL1201862, “PubChem BioAssay data set” (2004).
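Values below derive from 48-hour exposures of cells grown in 96-well plates, with endpoints linearly interpolated between the two concentrations bracketing the appropriate inhibition level. At the GI50, growth is halved.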 Active and inactive are the calls of the source. Rule as the data show it: active = GI50 up to about 1.1 µM and inactive = higher.

Key:
Experiment in all cases: inhibition of tumour cell growth, NCI panel, 48 h
SNB-75 = tested on: SNB-75
EKVX = tested on: EKVX
786-0 = tested on: 786-0
HCT-15 = tested on: HCT-15
HCC 2998 = tested on: HCC 2998
HL-60 = tested on: HL-60
SF-295 = tested on: SF-295
OVCAR-8 = tested on: OVCAR-8
SNB-19 = tested on: SNB-19
TK-10 = tested on: TK-10
OVCAR-3 = tested on: OVCAR-3
SK-MEL-28 = tested on: SK-MEL-28
A498 = tested on: A498
NCI-H460 = tested on: NCI-H460
A549 = tested on: A549
COLO 205 = tested on: COLO 205
CCRF-CEM = tested on: CCRF-CEM

SMILES	GI50 (SNB-75)	GI50 (EKVX)	GI50 (786-0)	GI50 (HCT-15) [µM]	GI50 (HCC 2998)	GI50 (HL-60)	GI50 (SF-295)	GI50 (OVCAR-8)	GI50 (SNB-19)	GI50 (TK-10)	GI50 (OVCAR-3)	GI50 (SK-MEL-28)	GI50 (A498)	GI50 (NCI-H460)	GI50 (A549)	GI50 (COLO 205)	GI50 (CCRF-CEM)
Nc1nc(N)c(-c2ccccc2)c(C(=O)Nc2ccc(Cl)c(Cl)c2)n1	> 100 µM (inactive)	> 100 µM (inactive)	> 100 µM (inactive)	> 100	> 100 µM (inactive)	> 100 µM (inactive)	> 100 µM (inactive)	> 100 µM (inactive)	> 100 µM (inactive)	> 100 µM (inactive)	> 100 µM (inactive)	> 100 µM (inactive)	> 100 µM (inactive)	> 100 µM (inactive)	> 100 µM (inactive)		
O=C1C(c2ccccc2)=C(c2ccccc2)C(c2ccc(-c3ccc(C4=C(c5ccccc5)C(=O)C(c5ccccc5)=C4c4ccccc4)cc3)cc2)=C1c1ccccc1	48.1 µM (inactive)	> 100 µM (inactive)	> 100 µM (inactive)	> 100		> 100 µM (inactive)	> 100 µM (inactive)	> 100 µM (inactive)	> 100 µM (inactive)	> 100 µM (inactive)	> 100 µM (inactive)		> 100 µM (inactive)	> 100 µM (inactive)	> 100 µM (inactive)	> 100 µM (inactive)	> 100 µM (inactive)
Cc1ccc2c(c1)CN1c3ccc(C)cc3CN2C1c1ccccc1O	0.667 µM (active)	7.19 µM (inactive)	42.5 µM (inactive)	23.6		14.8 µM (inactive)	46.8 µM (inactive)	> 100 µM (inactive)		26.2 µM (inactive)	21.5 µM (inactive)	37.5 µM (inactive)		33.9 µM (inactive)	> 100 µM (inactive)	78.7 µM (inactive)	47.9 µM (inactive)
COc1cc(Br)c(CC2NCCc3cc(OC)c(OC)cc32)cc1OC (stereo unspecified)	70.3 µM (inactive)	> 100 µM (inactive)	93.5 µM (inactive)		34.9 µM (inactive)	28.4 µM (inactive)	12 µM (inactive)	86.1 µM (inactive)	> 100 µM (inactive)	83.4 µM (inactive)	84.9 µM (inactive)	70.5 µM (inactive)	76 µM (inactive)	55.2 µM (inactive)	81.1 µM (inactive)	32.7 µM (inactive)	> 100 µM (inactive)
COc1ccc(C2COc3c(ccc(OC)c3OC)C2=O)cc1OC (stereo unspecified)	> 100 µM (inactive)	> 100 µM (inactive)	> 100 µM (inactive)		> 100 µM (inactive)	> 100 µM (inactive)	> 100 µM (inactive)	> 100 µM (inactive)	> 100 µM (inactive)	> 100 µM (inactive)	> 100 µM (inactive)	> 100 µM (inactive)	> 100 µM (inactive)	> 100 µM (inactive)	> 100 µM (inactive)	> 100 µM (inactive)	> 100 µM (inactive)
O=c1[nH]c(=O)n(C2CC(O)C(CO)O2)cc1C#Cc1ccc(C(F)(F)F)cc1 (stereo unspecified)	61.5 µM (inactive)	63.2 µM (inactive)	> 100 µM (inactive)	> 100	> 100 µM (inactive)	> 100 µM (inactive)	> 100 µM (inactive)	> 100 µM (inactive)	> 100 µM (inactive)	> 100 µM (inactive)	> 100 µM (inactive)	> 100 µM (inactive)		> 100 µM (inactive)	> 100 µM (inactive)	> 100 µM (inactive)	> 100 µM (inactive)
COc1ccc(/C=C/c2cc(OC)c(O[Si](C)(C)C(C)(C)C)c(OC)c2)cc1	84.7 µM (inactive)	> 100 µM (inactive)	> 100 µM (inactive)	> 100	> 100 µM (inactive)			> 100 µM (inactive)	> 100 µM (inactive)		> 100 µM (inactive)	6.24 µM (inactive)	> 100 µM (inactive)	42.2 µM (inactive)	> 100 µM (inactive)	> 100 µM (inactive)	58.7 µM (inactive)
